Laboratory results from US10126303B2, “Methods for identifying compounds as modulators of SLC38A9 interactions” (Whitehead Institute for Biomedical Research, priority 2014, dated 2018).
≈ marks a conversion by molar mass, not a printed value.

T1: SLC38A9.1 (Homo sapiens, UniProt Q8NBW4)
T1 construct: made in house; host or cells: HEK-293T cells stably expressing FLAG-SLC38A9.1
T1 sequence (Q8NBW4 1-561): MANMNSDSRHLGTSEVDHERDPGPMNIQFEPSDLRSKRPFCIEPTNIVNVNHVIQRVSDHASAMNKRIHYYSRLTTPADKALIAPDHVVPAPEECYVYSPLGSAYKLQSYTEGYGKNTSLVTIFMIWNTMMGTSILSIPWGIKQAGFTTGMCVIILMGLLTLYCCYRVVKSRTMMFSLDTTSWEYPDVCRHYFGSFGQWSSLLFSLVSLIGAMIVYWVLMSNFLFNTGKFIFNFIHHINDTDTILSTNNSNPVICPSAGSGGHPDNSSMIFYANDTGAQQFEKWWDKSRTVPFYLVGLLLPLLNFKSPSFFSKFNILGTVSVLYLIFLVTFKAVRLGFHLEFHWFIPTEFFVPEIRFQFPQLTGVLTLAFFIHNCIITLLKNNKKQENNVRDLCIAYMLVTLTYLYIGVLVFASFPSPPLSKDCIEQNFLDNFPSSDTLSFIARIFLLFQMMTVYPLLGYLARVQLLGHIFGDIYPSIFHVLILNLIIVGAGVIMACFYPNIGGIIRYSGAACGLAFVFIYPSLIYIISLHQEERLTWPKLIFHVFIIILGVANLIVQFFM

B1: SLC38A9.1 (Homo sapiens) (protein)
chain: T1 sequence (Q8NBW4 1-561)
notes: made in house; host or cells: HEK-293T cells stably expressing FLAG-SLC38A9.1

How the values were obtained:
SLC38A9.1 = target: T1, SLC38A9.1; assay: Competition of [3H]arginine transport by SLC38A9.1 proteoliposomes using unlabeled amino acids; assay type: biochemical; conditions: 0.5 μM [3H]arginine; 100 mM unlabeled amino acid; 75 min
Procedure: (§1) SLC38A9.1 proteoliposomes or liposome controls were centrifuged at 100,000 g for 30 min. in a TLA-100.3 rotor and resuspended in a smaller volume of outside buffer such that they could be added to a larger volume of 100 mM unlabeled amino acid (final concentration) supplemented with outside buffer components. […] At such high concentrations, it is important to adjust all amino acid solutions to pH 7.4. Assays were initiated by addition of 0.5 μM [^3H]arginine to the amino acid buffer solution followed by the addition of SLC38A9.1 proteoliposomes or liposome controls.
For steady-state kinetics experiments, time points were collected as described above and to assess substrate specificity, competition experiments were collected at 75 min. For efflux experiments, SLC38A9.1 proteoliposomes or liposome controls were loaded with [^3H]arginine as described above for an import assay for 1.5 hrs. To remove external amino acids, the reactions were applied to PD10 columns pre-equilibrated with outside buffer, and time points were collected as described above. Scintillation counts from liposome controls were subtracted from that of SLC38A9.1 proteoliposomes.

mTORC1 = assay: Amino acid-induced activation of the mTORC1 pathway in SLC38A9-null HEK-293T cells (immunoblot); assay type: cell-based; conditions: CRISPR/CAS9 knockout, starved 50 min, stimulated 10 min, range of concentrations
Procedure: FIGS. 5A-SE depict the results of experiments arginine and related immunoblots depicting impairment of induced activation of the mTORC1 pathway. FIG. 5A depicts the time dependent uptake of [^3H]-arginine by proteoliposomes containing SCL38A9.1. FIG. SB, left panel, depicts the time course of [^3H]arginine uptake, given fixed [^3H]arginine (0.5 μM) and increasing concentrations of unlabeled arginine. FIG. 5B, right panel, depicts velocity, calculated from left panel, as a function of total arginine concentration. Data were fitted to the Michaelis-Menton equation. FIG. 5C depicts the time-dependent efflux of SLC38A9.1 proteoliposomes following 1.5 hr loading with 0.5 μM [^3H]arginine. FIG. 5D depicts the competition of 0.5 μM [^3H]arginine transport by SLC38A9.1 using 100 mM of indicated unlabeled amino acids. The error bars in FIGS. 5A-5D represent standard deviation derived from at least 3 measurements. […]
HEK-293T cells (750,000/well) were plated into 6 well dishes and transfected 16 hours later with 1 μg of pX459 expressing above guides using XtremeGene9. […] Clones were expanded and evaluated for knockout status by western analysis for SLC38A9. These clones were evaluated for amino acid response as described above.

[1] = Solubility limit of amino acid in the transport assay solution; assay type: physicochemical
Procedure: as §1

[2] = substrate: N=C(N)NCCC[C@H](N)C(=O)O; assay: Steady-state kinetics of [3H]arginine uptake by SLC38A9.1 proteoliposomes; assay type: biochemical, human; conditions: other: [3H]arginine 0.5 μM plus increasing unlabeled arginine, 30° C.
Procedure: HEK-293T cells stably expressing FLAG-SLC38A9.1 were harvested as described above for immunoprecipitations, except cells were lysed in 40 mM HEPES pH 7.4, 0.5% Triton X-100, 1 mM DTT, and protease inhibitors. Following a 3 hr. immunoprecipitation, FLAG-affinity beads were washed twice for 5 min each in lysis buffer supplemented with 500 mM NaCl. Beads were equilibrated with inside buffer (20 mM MES pH 5, 90 mM KCl 10 mM NaCl) supplemented with 10% glycerol by washing them 5 times. FLAG-affinity purified SLC38A9.1 protein was eluted in glycerol-supplemented inside buffer containing 1 mg/mL FLAG peptide by rotation for 30 min. Protein was concentrated using Amicon centrifuge filters to about 1 mg/mL and snap-frozen in liquid nitrogen and stored at −80° C.
To form liposomes, chloroform-dissolved phosphatidylcholine (PC, 50 mg) was evaporated using dry nitrogen to yield a lipid film in a round bottom flask and desiccated overnight under vacuum. Lipids were hydrated in inside buffer at 50 mg/mL with light sonication in a water bath (Branson M2800H) and split into 100 μL aliquots in Eppendorf tubes. Aliquoted lipids were clarified using water bath sonication and recombined and extruded through a 100 nm membrane with 15 passes (Avanti 61000). […]

Molecule | competition of radiolabelled arginine transport (SLC38A9.1) | activation of mTORC1 by the amino acid in SLC38A9 knockouts vs control cells (mTORC1) | further results
N[C@@H](Cc1c[nH]cn1)C(=O)O [histidine] | competed radiolabelled arginine transport to similar degrees as arginine |  | 
N=C(N)NCCC[C@H](N)C(=O)O [arginine] |  | strongly repressed at all arginine concentrations | 
NCC(=O)O [glycine] | least effective competitor |  | 
CC(C)C[C@H](N)C(=O)O [leucine] | modest effect | only blunted | solubility [1]: ~130 mM (≈ 17.1 mg/mL)
NCCCC[C@H](N)C(=O)O [lysine] | competed radiolabelled arginine transport to similar degrees as arginine |  | 
B1 |  |  | Km [2]: 39 mM; kcat [2]: 0.03 s⁻¹
